# Measured values from US20230158157A1, “POTENT AND SELECTIVE DEGRADERS OF ALK” (DANA-FARBER CANCER INSTITUTE, INC., priority 2020, published 2023).
# Read-outs that look alike come from different tables or passages of the source.
# What was measured:
# EML4-ALK = target: T1, EML4-ALK (Homo sapiens, UniProt Q9UM73); experiment: EML4-ALK HiBit degradation assay in CRISPR-tagged H3122 cells (Nano-Glo HiBit Lytic Detection); type: cell-based
# T1 construct: endogenous in cells; host or cells: H3122 (NSCLC), single-cell clone after CRISPR knock-in of HiBit; the other entry of the earlier key: EML4 (Q9HC35, Echinoderm microtubule-associated protein-like 4)
# Description: (§1) NSCLC cell line H3122 was subjected to CRISPR to express EML4-ALK with HiBit-tag on its c-terminal. Single-cell clone was selected and expanded for the following assays that monitor endogenous EML4-ALK level in high throughput manner. Cells were seeded in 384-well white Tissue-culture plates at 3000 cells/well for 8 hours. […] HiBit signal was assessed using Nano-Glo® HiBit Lytic Detection System (Promega™). Degrader-treated was normalized by DMSO-treated controls and DC50 and Dmax were generated by GraphPad Prism® 8.0.
# as §1, with “its c-terminus. A single-cell” for “its c-terminal. Single-cell”, “Degrader-treated cells were” for “Degrader-treated was”
# as §1, with “its C-terminus. A single-cell” for “its c-terminal. Single-cell”, “Degrader-treated cells were” for “Degrader-treated was”
# H3122 cells = experiment: CTG; type: cell-based; conditions: read-out: CTG IC50
# [1] = NCI-H3122, Table 1, first Dmax column, H3122 EML4-ALK-HiBit, 16 hours, read-out: Degradation Dmax
# [2] = NCI-H3122, Table 1, average Dmax, read-out: Degradation Avg. Dmax
# [3] = Table 1, first DC50 column, H3122 EML4-ALK-HiBit, 16 hours, read-out: Degradation DC50
# [4] = Table 1, average DC50, read-out: Degradation Avg. DC50
# [5] = Homo sapiens, NCI-H3122, Table 1
# [6] = NCI-H3122, Table 1, second Dmax column, H3122 EML4-ALK-HiBit, 16 hours, read-out: Degradation Dmax
# [7] = Table 1, second DC50 column, H3122 EML4-ALK-HiBit, 16 hours, read-out: Degradation DC50
# [8] = Table 2, first DC50 column, H3122 EML4-ALK-HiBit, 16 hours, read-out: Degradation DC50
# [9] = Table 2, average DC50, read-out: Degradation Avg. DC50
# [10] = NCI-H3122, Table 2, first Dmax column, H3122 EML4-ALK-HiBit, 16 hours, read-out: Degradation Dmax
# [11] = NCI-H3122, Table 2, average Dmax, read-out: Degradation Avg. Dmax
# [12] = Homo sapiens, NCI-H3122, Table 2
# [13] = NCI-H3122, Table 2, second Dmax column, H3122 EML4-ALK-HiBit, 16 hours, read-out: Degradation Dmax
# [14] = Table 2, second DC50 column, H3122 EML4-ALK-HiBit, 16 hours, read-out: Degradation DC50
# T1 sequence (Q9UM73 with tags, fused parts or gaps): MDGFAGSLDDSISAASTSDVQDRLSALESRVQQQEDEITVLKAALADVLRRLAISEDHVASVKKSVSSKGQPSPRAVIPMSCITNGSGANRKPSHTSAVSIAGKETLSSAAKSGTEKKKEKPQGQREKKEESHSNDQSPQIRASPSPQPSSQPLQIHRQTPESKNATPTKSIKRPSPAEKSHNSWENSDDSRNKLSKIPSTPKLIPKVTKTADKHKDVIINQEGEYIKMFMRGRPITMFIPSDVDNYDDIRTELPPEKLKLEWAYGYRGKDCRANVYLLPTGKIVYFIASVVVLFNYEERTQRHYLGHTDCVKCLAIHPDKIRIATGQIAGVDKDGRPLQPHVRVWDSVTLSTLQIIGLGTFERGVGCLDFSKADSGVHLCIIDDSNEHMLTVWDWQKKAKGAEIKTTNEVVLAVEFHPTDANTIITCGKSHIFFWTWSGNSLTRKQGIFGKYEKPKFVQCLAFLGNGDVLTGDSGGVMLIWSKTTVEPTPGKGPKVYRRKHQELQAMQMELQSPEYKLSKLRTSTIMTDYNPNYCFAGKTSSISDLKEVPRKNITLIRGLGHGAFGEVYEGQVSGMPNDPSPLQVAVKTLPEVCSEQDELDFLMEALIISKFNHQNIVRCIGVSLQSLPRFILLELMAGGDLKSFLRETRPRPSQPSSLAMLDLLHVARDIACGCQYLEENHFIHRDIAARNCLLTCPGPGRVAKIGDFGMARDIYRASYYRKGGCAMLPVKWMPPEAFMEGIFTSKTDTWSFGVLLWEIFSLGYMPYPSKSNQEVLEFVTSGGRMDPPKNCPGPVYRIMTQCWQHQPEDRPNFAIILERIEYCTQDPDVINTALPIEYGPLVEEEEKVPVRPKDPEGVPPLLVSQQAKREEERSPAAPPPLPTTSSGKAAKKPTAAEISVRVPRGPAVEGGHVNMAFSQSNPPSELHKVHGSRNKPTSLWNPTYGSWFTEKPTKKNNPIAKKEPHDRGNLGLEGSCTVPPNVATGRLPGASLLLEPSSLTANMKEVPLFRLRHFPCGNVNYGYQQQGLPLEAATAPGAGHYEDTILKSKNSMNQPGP
smiles,measurement,setting,value
"COc1cc(CCN(C)C(=O)CCOCCOCCOCC#Cc2cccc3c2C(=O)N(C2CCC(=O)NC2=O)C3=O)c(C)cc1Nc1ncc(Cl)c(Nc2ccccc2S(=O)(=O)C(C)C)n1 (stereo not shown) [compound 11, N-(4-((5-chloro-4-((2-(isopropylsulfonyl)phenyl)amino)pyrimidin-2-yl)amino)-5-methoxy-2-methylphenethyl)-3-(2-(2-((3-(2-(2,6-dioxopiperidin-3-yl)-1,3-dioxoisoindolin-4-yl)prop-2-yn-1-yl)oxy)ethoxy)ethoxy)-N-methylpropanamide]",Dmax,EML4-ALK; [1],53.3%
same,Dmax,EML4-ALK; [2],53.3%
same,DC50,EML4-ALK; [3],502 nM
same,DC50,EML4-ALK; [4],302 nM
same,IC50,H3122 cells; [5],219 nM
COc1cc(CCNCCOCCOCCC(=O)N[C@H](C(=O)N2C[C@H](O)CC2C(=O)N[C@@H](C)c2ccc(-c3scnc3C)cc2)C(C)(C)C)c(C)cc1Nc1ncc(Cl)c(Nc2ccccc2S(=O)(=O)C(C)C)n1 (stereo partly shown) [Compound 46],Dmax,EML4-ALK; [1],58%
same,Dmax,EML4-ALK; [6],34.5%
same,Dmax,EML4-ALK; [2],51.3%
same,DC50,EML4-ALK; [3],1390 nM
same,DC50,EML4-ALK; [7],206 nM
same,DC50,EML4-ALK; [4],801 nM
same,IC50,H3122 cells; [5],316 nM
COc1cc(CCN(C)C(=O)CCCNc2cccc3c2C(=O)N(C2CCC(=O)NC2=O)C3=O)c(C)cc1Nc1ncc(Cl)c(Nc2ccccc2S(=O)(=O)C(C)C)n1 (stereo not shown) [compound 1],Dmax,EML4-ALK; [1],25.8%
same,Dmax,EML4-ALK; [2],23.8%
same,DC50,EML4-ALK; [3],32 nM
same,DC50,EML4-ALK; [4],32 nM
same,IC50,H3122 cells; [5],44.8 nM
COc1cc(CCNCCCCCOc2cc(-c3scnc3C)ccc2[C@H](C)NC(=O)[C@@H]2C[C@@H](O)CN2C(=O)[C@@H](NC(C)=O)C(C)(C)C)c(C)cc1Nc1ncc(Cl)c(Nc2ccccc2S(=O)(=O)C(C)C)n1 [Compound 53],Dmax,EML4-ALK; [1],64.9%
same,Dmax,EML4-ALK; [6],68.2%
same,Dmax,EML4-ALK; [2],66.5%
same,DC50,EML4-ALK; [3],113 nM
same,DC50,EML4-ALK; [7],72 nM
same,DC50,EML4-ALK; [4],93 nM
same,IC50,H3122 cells; [5],121 nM
COc1cc(CCN(C)C(=O)CCCNC(=O)COc2cccc3c2C(=O)N(C2CCC(=O)NC2=O)C3=O)c(C)cc1Nc1ncc(Cl)c(Nc2ccccc2P(C)(C)=O)n1 (stereo not shown) [Compound 57],DC50,EML4-ALK; [8],9340 nM
same,DC50,EML4-ALK; [9],9340 nM
same,IC50,H3122 cells; Table 2,> 10000 nM
COc1cc(CCN(C)C(=O)CCCCCCCCNC(=O)COc2cccc3c2C(=O)N(C2CCC(=O)NC2=O)C3=O)c(C)cc1Nc1ncc(Cl)c(Nc2ccccc2P(C)(C)=O)n1 (stereo not shown) [Compound 59],Dmax,EML4-ALK; [10],33.7%
same,Dmax,EML4-ALK; [11],33.7%
same,DC50,EML4-ALK; [8],3740 nM
same,DC50,EML4-ALK; [9],3740 nM
same,IC50,H3122 cells; [12],1720 nM
"COc1cc(CCN(C)C(=O)CCCC#Cc2cccc3c2C(=O)N(C2CCC(=O)NC2=O)C3=O)c(C)cc1Nc1ncc(Cl)c(Nc2ccccc2S(=O)(=O)C(C)C)n1 (stereo not shown) [compound 9, N-(4-((5-chloro-4-((2-(isopropylsulfonyl)phenyl)amino)pyrimidin-2-yl)amino)-5-methoxy-2-methylphenethyl)-6-(2-(2,6-dioxopiperidin-3-yl)-1,3-dioxoisoindolin-4-yl)-N-methylhex-5-ynamide]",Dmax,EML4-ALK; [1],54.1%
same,Dmax,EML4-ALK; [2],54.1%
same,DC50,EML4-ALK; [3],265 nM
same,DC50,EML4-ALK; [4],265 nM
same,IC50,H3122 cells; [5],122 nM
"COc1cc(CCN(C)C(=O)CCCCCNC(=O)COc2cccc3c2C(=O)N(C2CCC(=O)NC2=O)C3=O)c(C)cc1Nc1ncc(Cl)c(Nc2ccccc2S(=O)(=O)C(C)C)n1 (stereo not shown) [compound 6, N-(4-((5-chloro-4-((2-(isopropylsulfonyl)phenyl)amino)pyrimidin-2-yl)amino)-5-methoxy-2-methylphenethyl)-6-(2-((2-(2,6-dioxopiperidin-3-yl)-1,3-dioxoisoindolin-4-yl)oxy)acetamido)-N-methylhexanamide]",Dmax,EML4-ALK; [1],34%
same,Dmax,EML4-ALK; [6],30.4%
same,Dmax,EML4-ALK; [2],32.2%
same,DC50,EML4-ALK; [3],124 nM
same,DC50,EML4-ALK; [7],266 nM
same,DC50,EML4-ALK; [4],195 nM
same,IC50,H3122 cells; [5],11.6 nM
"COc1cc(CCN(C)C(=O)CCCNC(=O)COc2cccc3c2C(=O)N(C2CCC(=O)NC2=O)C3=O)c(C)cc1Nc1ncc(Cl)c(Nc2ccccc2S(=O)(=O)C(C)C)n1 (stereo not shown) [compound 5, N-(4-((5-chloro-4-((2-(isopropylsulfonyl)phenyl)amino)pyrimidin-2-yl)amino)-5-methoxy-2-methylphenethyl)-4-(2-((2-(2,6-dioxopiperidin-3-yl)-1,3-dioxoisoindolin-4-yl)oxy)acetamido)-N-methylbutanamide]",Dmax,EML4-ALK; [1],44.5%
same,Dmax,EML4-ALK; [2],44.5%
same,DC50,EML4-ALK; [3],239 nM
same,IC50,H3122 cells; [5],149 nM
COc1cc(CCN(C)CCCCCNc2cccc3c2C(=O)N(C2CCC(=O)NC2=O)C3=O)c(C)cc1Nc1ncc(Cl)c(Nc2ccccc2S(=O)(=O)C(C)C)n1 (stereo not shown) [Compound 50],DC50,EML4-ALK; [3],57 nM
same,DC50,EML4-ALK; [7],24 nM
same,DC50,EML4-ALK; [4],41 nM
same,IC50,H3122 cells; Table 1,20.6 nM
"COc1cc(CCN(C)C(=O)CCCCCCCCNC(=O)COc2cccc3c2C(=O)N(C2CCC(=O)NC2=O)C3=O)c(C)cc1Nc1ncc(Cl)c(Nc2ccccc2S(=O)(=O)C(C)C)n1 (stereo not shown) [compound 7, N-(4-((5-chloro-4-((2-(isopropylsulfonyl)phenyl)amino)pyrimidin-2-yl)amino)-5-methoxy-2-methylphenethyl)-9-(2-((2-(2,6-dioxopiperidin-3-yl)-1,3-dioxoisoindolin-4-yl)oxy)acetamido)-N-methylnonanamide]",Dmax,EML4-ALK; [1],50.8%
same,Dmax,EML4-ALK; [6],44.8%
same,Dmax,EML4-ALK; [2],47.8%
same,DC50,EML4-ALK; [3],91 nM
same,DC50,EML4-ALK; [7],36 nM
same,DC50,EML4-ALK; [4],63 nM
same,IC50,H3122 cells; [5],15.7 nM
COc1cc(CCNCCCCCSC(C)(C)[C@H](NC(C)=O)C(=O)N2C[C@H](O)C[C@H]2C(=O)N[C@@H](C)c2ccc(-c3scnc3C)cc2)c(C)cc1Nc1ncc(Cl)c(Nc2ccccc2S(=O)(=O)C(C)C)n1 [Compound 48],Dmax,EML4-ALK; [1],77.2%
same,Dmax,EML4-ALK; [6],108%
same,Dmax,EML4-ALK; [2],92.8%
same,DC50,EML4-ALK; [3],961 nM
same,DC50,EML4-ALK; [7],611 nM
same,DC50,EML4-ALK; [4],786 nM
same,IC50,H3122 cells; [5],388 nM
COc1cc(CCN(C)C(=O)CCCCCCCCNc2cccc3c2C(=O)N(C2CCC(=O)NC2=O)C3=O)c(C)cc1Nc1ncc(Cl)c(Nc2ccccc2P(C)(C)=O)n1 (stereo not shown) [Compound 66],Dmax,EML4-ALK; [10],23.6%
same,Dmax,EML4-ALK; [13],49.3%
same,Dmax,EML4-ALK; [11],36.5%
same,DC50,EML4-ALK; [8],1730 nM
same,DC50,EML4-ALK; [14],670 nM
same,DC50,EML4-ALK; [9],1200 nM
same,IC50,H3122 cells; [12],1630 nM
COc1cc(CCNCCCCCSC(C)(C)C(NC(C)=O)C(=O)N2C[C@H](O)C[C@H]2C(=O)N[C@@H](C)c2ccc(-c3scnc3C)cc2)c(C)cc1Nc1ncc(Cl)c(Nc2ccccc2P(C)(C)=O)n1 (stereo partly shown) [Compound 73],Dmax,EML4-ALK; [10],59.6%
same,Dmax,EML4-ALK; [13],62%
same,Dmax,EML4-ALK; [11],60.8%
same,DC50,EML4-ALK; [8],3270 nM
same,DC50,EML4-ALK; [14],1180 nM
same,DC50,EML4-ALK; [9],2230 nM
same,IC50,H3122 cells; [12],788 nM
"COc1cc(CCN(C)C(=O)CCCCCNc2cccc3c2C(=O)N(C2CCC(=O)NC2=O)C3=O)c(C)cc1Nc1ncc(Cl)c(Nc2ccccc2S(=O)(=O)C(C)C)n1 (stereo not shown) [compound 2, N-(4-((5-chloro-4-((2-(isopropylsulfonyl)phenyl)amino)pyrimidin-2-yl)amino)-5-methoxy-2-methylphenethyl)-6-((2-(2,6-dioxopiperidin-3-yl)-1,3-dioxoisoindolin-4-yl)amino)-N-methylhexanamide]",Dmax,EML4-ALK; [1],24.1%
same,Dmax,EML4-ALK; [2],31.4%
same,DC50,EML4-ALK; [3],67 nM
same,DC50,EML4-ALK; [7],46 nM
same,DC50,EML4-ALK; [4],57 nM
same,IC50,H3122 cells; [5],76.9 nM
CN[C@@H](C)C(=O)N[C@H](C(=O)N1Cc2cc(OCCCCCNCCc3cc(OC)c(Nc4ncc(Cl)c(Nc5ccccc5S(=O)(=O)C(C)C)n4)cc3C)ccc2C[C@H]1C(=O)N[C@H]1CCCc2ccccc21)C(C)(C)C [Compound 39],Dmax,EML4-ALK; [1],79.1%
same,Dmax,EML4-ALK; [6],99.3%
same,Dmax,EML4-ALK; [2],89.2%
same,DC50,EML4-ALK; [3],402 nM
same,DC50,EML4-ALK; [7],184 nM
same,DC50,EML4-ALK; [4],293 nM
same,IC50,"H3122 cells; Homo sapiens, NCI-H3122, Table 1, unheaded column beside IC50 (nM)",414 nM
same,IC50,H3122 cells; [5],1480 nM
